Where no end group is shown, it is not given here.
Legend:
ERK [1] = experiment: PDGF-induced ERK phosphorylation in PASMC; type: cell-based
Procedure: (§1) Cell culture. Human umbilical vein endothelial cells (HUVEC) and pulmonary aortic smooth muscle cells (PASMC) were obtained from Clonetics and maintained in endothelial cell basal medium-2 (EBM-2; Clonetics) and smooth muscle medium-2 (SmGM-2; Clonetics), respectively. Cells were cultured at 37° C. under a humidified atmosphere containing 5% CO2. For experimental purposes, cells were plated in 8 100-mm plastic dishes at 5,000 cells/cm^2 and were grown to confluence before overnight serum starvation. Cells were treated with vehicle or with a PCK3145 derivative diluted in 0.1 N NaOH, and stimulated with 50-100 ng/ml VEGF or PDGF, with 10 ng/ml of bFGF (basic fibroblast growth factor) or with 1 μM S1P (sphingosine-1-phosphate).
Immunoprecipitation and immunoblotting procedures. After treatment, cells were washed once with phosphate-buffered saline (PBS) containing 1 mM sodium orthovanadate and were incubated in the same medium for 1 h at 4° C. […] The cells were then scraped from the culture dishes and the resulting lysates were clarified by centrifugation at 10,000 g for 10 min; Protein concentrations were determined using the micro bicinchoninic acid method (Pierce). […] The immunoreactive bands were quantified by scanning densitometry (Molecular Dynamics). […]

ERK [2] = experiment: Induced ERK phosphorylation in HUVEC (Western blot); type: cell-based, Human
Procedure: as §1
(§2) Immunoprecipitation and immunoblotting procedures. After treatment, cells were washed once with phosphate-buffered saline (PBS) containing 1 mM sodium orthovanadate and were incubated in the same medium for 1 h at 4° C. The cells were solubilized on ice in lysis buffer (150 mM NaCl, 10 mM Tris-HCl, pH 7.4, 1 mM EDTA, 1 mM EGTA, 0.5% Nonidet P-40, 1% Triton X-100) containing 1 mM sodium orthovanadate. The cells were then scraped from the culture dishes and the resulting lysates were clarified by centrifugation at 10,000 g for 10 min; Protein concentrations were determined using the micro bicinchoninic acid method (Pierce). For immunoprecipitation studies, lysates were clarified by a 1 h incubation at 4° C. with a mixture of Protein A/Protein G Sepharose beads. After removal of the Sepharose beads by low-speed centrifugation, identical amounts of protein (200 μg) from each sample were transferred to fresh tubes and incubated in lysis buffer overnight at 4° C. in the presence of 2 μg/ml of specific antibodies. Immunocomplexes were collected by incubating the mixture with 25 μl (50% suspension) of Protein A- (rabbit primary antibody) or Protein G- (mouse primary antibody) Sepharose beads, for 2 h. Nonspecifically-bound material was removed by washing the beads three times in 1 ml of lysis buffer containing 1 mM sodium orthovanadate, and bound material was solubilized in 25 μl of two-fold concentrated Laemmli sample buffer (125 mM Tris-HCl (pH 6.8), 20% glycerol, 4% SDS, 10% β-mercaptoethanol, and 0.00125% bromphenol blue), boiled 5 min, and resolved by SDS-PAGE. The proteins were transferred onto polyvinylidene difluoride (PVDF) membranes, blocked 1 h at room temperature with Tris-buffered saline/Tween 20 (147 mM NaCl, 20 mM Tris/HCl, pH 7.5, and 0.1% Tween 20) containing 2% bovine serum albumin and incubated overnight at 4° C. with primary antibody. […] The immunoreactive bands were quantified by scanning densitometry (Molecular Dynamics).
VEGF is a strong activator of ERKs (Extracellular-signal-Regulated protein Kinases) 1 and 2 via VEGF receptor 2. In order to test the ability of the PCK3145 derivative in potentially antagonizing VEGF-mediated ERK phosphorylation, serum-starved quiescent endothelial cells (HUVEC) were incubated with vehicle (phosphate-buffered saline (PBS) pH 7.4) or PCK3145 derivative (300 μg/ml) for 24 h and then stimulated with VEGF, bFGF (basic Fibroblast Growth Factor) or S1P (sphingosine-1-phosphate). Cells were washed with PBS containing NaF/Na3VO4 and incubated in the same medium buffer for 1 h at 4° C. The cells were scraped from the culture dishes and the resulting lysates clarified by centrifugation. Western blotting and immunodetection using anti-phosphoERK and anti-ERK antibodies was then performed.

RhoA = RhoA gene and protein expression in U-87 cells (Western blot, RT-PCR); type: cell-based; settings: U-87, 300 ug/ml, 48 hrs
Procedure: Specific manipulation of the GTPase Rho activity can be used to suppress or enhance the organizational behaviour of endothelial cells as well as it can restrict cancer cells proliferation. In particular, RhoA mediates cell contractility by organizing actin filaments which consequently regulates cell migration. […] Tests were carried out in order to determine whether the PCK3145 derivative affected RhoA gene and protein expression. U-87 cells were either treated with the PCK3145 derivative (300 ug/ml, 48 hrs). Results of this experiment confirm that the PCK3145 derivative induced endogenous RhoA protein expression in U-87 cells as assessed by Western blotting (FIG. 11A, FIG. 11C).

VEGFR-2 = molecular target: T1, VEGFR-2 (Homo sapiens, UniProt P35968); experiment: VEGF-induced VEGFR-2 phosphorylation in HUVEC (immunoprecipitation, Western blot); type: cell-based
T1 construct: host or cells: HUVEC
T1 sequence (P35968 20-1356): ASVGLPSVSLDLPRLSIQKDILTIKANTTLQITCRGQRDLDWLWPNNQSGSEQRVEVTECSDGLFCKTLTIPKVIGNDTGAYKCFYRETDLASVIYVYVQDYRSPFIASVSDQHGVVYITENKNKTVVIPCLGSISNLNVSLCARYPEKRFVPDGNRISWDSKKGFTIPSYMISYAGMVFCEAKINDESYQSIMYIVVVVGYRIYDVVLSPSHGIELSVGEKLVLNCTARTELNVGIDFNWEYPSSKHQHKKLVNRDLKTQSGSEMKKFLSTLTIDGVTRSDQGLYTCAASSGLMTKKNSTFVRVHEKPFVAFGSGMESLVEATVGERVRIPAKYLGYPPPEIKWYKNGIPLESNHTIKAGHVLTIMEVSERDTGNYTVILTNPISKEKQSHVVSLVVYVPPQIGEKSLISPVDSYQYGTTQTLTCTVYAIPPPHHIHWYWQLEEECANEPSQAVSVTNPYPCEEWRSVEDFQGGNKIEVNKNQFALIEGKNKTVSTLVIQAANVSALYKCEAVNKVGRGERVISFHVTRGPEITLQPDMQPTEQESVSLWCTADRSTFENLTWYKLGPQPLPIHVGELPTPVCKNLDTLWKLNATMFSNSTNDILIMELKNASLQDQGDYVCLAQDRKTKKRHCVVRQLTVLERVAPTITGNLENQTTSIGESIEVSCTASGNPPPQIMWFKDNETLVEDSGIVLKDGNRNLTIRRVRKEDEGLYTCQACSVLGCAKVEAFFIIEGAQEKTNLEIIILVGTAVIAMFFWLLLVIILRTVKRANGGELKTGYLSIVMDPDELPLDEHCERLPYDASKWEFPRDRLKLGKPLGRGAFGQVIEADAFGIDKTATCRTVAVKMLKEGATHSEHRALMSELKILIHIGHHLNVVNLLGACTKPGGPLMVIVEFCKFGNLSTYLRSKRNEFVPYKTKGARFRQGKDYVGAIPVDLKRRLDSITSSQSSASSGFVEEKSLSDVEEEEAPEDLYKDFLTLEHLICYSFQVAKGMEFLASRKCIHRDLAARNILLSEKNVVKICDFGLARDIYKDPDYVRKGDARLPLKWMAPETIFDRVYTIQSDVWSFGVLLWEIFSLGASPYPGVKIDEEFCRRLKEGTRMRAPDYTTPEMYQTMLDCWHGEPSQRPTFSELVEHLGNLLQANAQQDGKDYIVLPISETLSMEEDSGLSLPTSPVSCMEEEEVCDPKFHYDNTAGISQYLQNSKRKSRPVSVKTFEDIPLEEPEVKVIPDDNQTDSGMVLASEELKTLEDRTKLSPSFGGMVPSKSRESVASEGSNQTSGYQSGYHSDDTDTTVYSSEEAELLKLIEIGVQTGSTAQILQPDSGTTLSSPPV
Procedure: as §2, with “SDS-PAGE.” for “SDS-PAGE. The proteins were transferred onto polyvinylidene difluoride (PVDF) membranes, blocked 1 h at room temperature with Tris-buffered saline/Tween 20 (147 mM NaCl, 20 mM Tris/HCl, pH 7.5, and 0.1% Tween 20) containing 2% bovine serum albumin and incubated overnight at 4° C. with primary antibody.”
The multifunctionality of VEGF at the cellular level results from its ability to initiate a diverse, complex and integrated network of signaling pathways via its major receptor, VEGFR-2. […] After each treatment, equal amounts of protein were immunoprecipitated with anti-VEGFR-2 polyclonal antibodies and analysed by Western blotting.

ERK [3] = experiment: VEGF-induced ERK phosphorylation in BAEC; type: cell-based; settings: BAEC (not shown)

In the case of “EWQTDNCETCTCYET (cysteine pairing not given here) [PCK3145 derivative, PCK3145 derivative with acetylaminomethyl groups on the three cysteines]”, the “PDGF-induced ERK phosphorylation” value (ERK [1]) was “inhibition”, the “extent of ERK phosphorylation by VEGF, dose-response” value (ERK [2]) was “gradually inhibit” and the “ERK phosphorylation induced by S1P” value (ERK [2]; 300 μg/ml, 24 h) was “not that induced by bFGF or S1P”. For the same sequence, the “ERK phosphorylation induced by VEGF” value (ERK [2]; 300 μg/ml, 24 h) was “specific inhibitory effect”, the “total amount of ERK” value (ERK [2]; 300 μg/ml, 24 h) was “unaffected” and the “VEGF-induced ERK phosphorylation, time-course” value (ERK [2]; 3 and 24 hrs) was “necessity of a long term action”. The “RhoA gene expression (RT-PCR)” value (RhoA) was “paralleled that of its gene expression”, the “endogenous RhoA protein expression (Western blotting)” value (RhoA) was “induced” and the “phosphorylation of VEGFR-2 induced by VEGF, dose dependence” value (VEGFR-2) was “dose-dependent”. The “phosphorylation of VEGFR-2 induced by VEGF” value (VEGFR-2; 300 μg/ml, 24 h) was “inhibited” and the “ERK phosphorylation induced by VEGF” value (ERK [3]) was “inhibitory effect was confirmed”.

From US20080200393A1, “Method and Composition For Treating Angiogenesis and For Preventing Cancer Progression and Metastasis Comprising a Prostate Secretory Protein (Psp94) Family Member” (Ambrillia Biopharma Inc., priority 2004, published 2008)
